From patent publication US20060148838A1, “Novel pyrrolodihydroisoquinolines useful in the treatment of cancer” (Altana Pharma AG, priority 2003, published 2006)

Legend:
[1] = system: NCl-H460 non-small cell lung cancer cells; test: Alamar Blue cell viability assay, anti-proliferative/cytotoxic activity; type: cell-based; settings: 72 hours incubation, one range stated for all listed Examples, read-out: −log IC50 NCl-H460 (converted)
Method: The anti-proliferative/cytotoxic activity of the compounds described herein, can be tested on NCl-H460 non-small cell lung cancer cells using the Alamar Blue cell viability assay (described in O'Brien et al. Eur J Biochem 267, 5421-5426, 2000). The compounds are dissolved as 20 mM solutions in dimethylsulfoxide (DMSO) and subsequently diluted in semi-logarithmic steps. DMSO dilutions are further diluted 1:100 into Dulbecco's modified Eagle's medium (DMEM) containing 10% fetal calf serum to a final concentration twice as much as the final concentration in the test. NCl-460 cells are seeded into 96 well flat bottom plates at a density of 4000 cells per well in a volume of 50 μl per well. 24 hours after seeding the 50 μl each of the compound dilutions in DMEM medium are added into each well of the 96 Well plate. Each compound dilution is tested as quadruplicates. Wells containing untreated control cells are filled with 50 μl DMEM medium containing 1% DMSO. The cells are then incubated with the substances for 72 hours at 37° C. In a humified atmosphere containing 5% carbon dioxide. To determine the viability of the cells, 10 μl of an Alamar Blue solution (Biosource) are added and the fluorescence is measured at an extinction of 544 nm and an emission of 590 nm. For the calculation of cell viability the emission value from untreated cells is set to 100% viability and the emission rates of treated cells are set in relation to the values of untreated cells. Viabilities are expressed as % values.
The corresponding IC50 values of the compounds for anti-proliferative/cytotoxic activity are determined from the concentration-effect curves.
Representative advantageous IC50 values for anti-proliferation/cytotoxicity determined for the compounds mentioned and numbered as Examples in the examples above follow from the following table A, in which the numbers of the compound correspond to the numbers of the examples.

SMILES	melting point [°C]	IC50 [1] [nM]
CCOC(=O)c1c(-c2cccc3ccccc23)c(C)n2c1-c1cc(OC)c(OCCOC)cc1CC2 [Example 20, 9-Methoxy-8-(2-methoxy-ethoxy)-3-methyl-2-naphthalen-1-yl-5,6-dihydro-pyrrolo[2,1-a]isoquinoline-1-carboxylic acid ethyl ester]	126 to 128	398 to 3160
CCOC(=O)c1c(-c2cc(C)c(O)c(C)c2)c(C)n2c1-c1cc(OC)c(OC)cc1C(C)(C)C2 [Example 1, 2-(4-hydroxy-3,5-dimethyl-phenyl)-8,9-dimethoxy-3,6,6-trimethyl-5,6-dihydro-pyrrolo[2,1-a]isoquinoline-1-carboxylic acid ethyl ester]	200 to 202	398 to 3160
CCC(C)NC(=O)c1c(-c2cc(C)c(O)c(C)c2)c(C)n2c1-c1cc(OC)c(OC)cc1CC2 (centres unmarked) [Example 36, 2-(4-Hydroxy-3,5-dimethyl-phenyl)-8,9-dimethoxy-3-methyl-5,6-dihydro-pyrrolo[2,1-a]isoquinoline-1-carboxylic acid sec-butylamide]	238 to 240	398 to 3160
COc1cc2c(cc1OC)-c1c(C(=O)NC3CCCCC3)c(-c3cc(C)c(O)c(C)c3)c(C)n1CC2 [Example 28, 2-(4-Hydroxy-3,5-dimethyl-phenyl)-8,9-dimethoxy-3-methyl-5,6-dihydro-pyrrolo[2,1-a]isoquinoline-1-carboxylic acid cyclohexyl amide]	273 to 276	398 to 3160
